Assay results taken from patent US6103709A (priority 1998, dated 2000).

Assays:
[1] = system: vitamin D-deficient chick; test: Bone Ca2+ mobilizing activity (BCM) in vitamin D-deficient chick; format: in vivo; conditions: i.m.; for Classic Vit D Responses BCM: relative to 100 pmol 1α,25(OH)2 D3 = 100%, 12 h before assay; for BCM (in words): vitamin D-deficient chick
Procedure: The bone calcium mobilizing (BCM) assay is also conducted in the vitamin D-deficient chick. The BCM assay determines the relative ability of the tested analog to mobilize bone calcium. The natural hormone 1α,25(OH)2 D3 is very potent in the BCM assay. For example, when 1α,25(OH)2 D3 in inappropriate amounts are used as a drug in human patients, the patient may become hypercalcemic and eventually hypercalciuria with nephrolithiasis and renal failure may develop. The BCM assay was used to determine the relative activity of the analogs of the invention to stimulate bone Ca^2+ mobilization.
Results of the testing of the analogs of the invention in vivo by the ICA and IBM assays are shown in FIG. 9 which illustrates the capability of analogs LO, EV and HR to stimulate intestinal Ca^2+ absorption (ICA) and bone Ca^2+ mobilizing activity (BCM). In this study, the analogs of 1α,25(OH) were given i.m. to vitamin D-deficient chicks 12 hours before the assay began. The activity produced by 100 pmol of 1α,25(OH)2 D3 was set to be 100% for both ICA and BCM. The dose of the analogs required to achieve a biological response for either ICA or BCM equivalent to the 100 pmol dose of 1α,25(OH)2 D3 was calculated and converted to a percentage. Results are expressed as mean +SE of groups of seven chicks. Each assay included a negative control (-D), that is no vitamin D was present, and a positive control, where vitamin D3 (+D3) was present in 3.25 nmol. […] 1α,25(OH)2 D3 and analogs LO [14α,15α-methano-1α,25(OH)2 D3 ], EV [22-(m(dimethylhydroxymethyl)phenyl)-23,24,25,26,27-pentanor-1α-OH-D3 ] and HR [(22R)-1,25(OH)2 -22,23-diene-D3 ] were administered in 0.0065, 0.065, 0.65 and 6.5 nmol as shown.
In Vivo Assays of Intestinal Calcium Absorption and Bone Calcium Mobilization
This example describes assays used for determination of analogs biological activity in intestinal calcium absorption (ICA) and bone calcium mobilization (BCM) assays.
ICA and BCM were measured in vivo in the vitamin D-deficient chick model system according to Biochem. Pharmacol., 18: 2347 (1969).
Twelve hours before assay, the chickens, which had been placed on a zero-calcium diet 48 h before assay, were injected intramuscularly with the vitamin metabolite 1α,25(OH)2 D3 or analog (1-10,000 pmoles) dissolved in 0.1 mL of ethanol/1,2-propanediol (1:1, v/v). At the time of assay, 4.0 mg of ^40 Ca^2+ +5 μCi of ^45 Ca^2+ (New England Nuclear) were placed in the duodenum of the birds lightly anesthetized with ether. After 30 min, the birds were decapitated and the blood was collected.
BCM activity was estimated from the increase of total serum calcium concentration, as determined by atomic absorption spectrophotometry.

[2] = molecular target: T1, human vitamin D-binding protein (hDBP) (Homo sapiens, UniProt P02774); test: Relative Competitive Index assay, vitamin D-binding protein; conditions: for Vit D Binding Protein (RCI): RCI of 1α,25(OH)2 D3 set to 100, 4° C., pH 7.4; for Binding to DBP relative to 1α,25(OH)2 D3 (RCI, FIG. 7): 1α,25(OH)2 D3 = 100%, mean of three determinations; for DBP binding (in words): compared with 1α,25(OH)2 D3
T1 sequence (P02774 17-474): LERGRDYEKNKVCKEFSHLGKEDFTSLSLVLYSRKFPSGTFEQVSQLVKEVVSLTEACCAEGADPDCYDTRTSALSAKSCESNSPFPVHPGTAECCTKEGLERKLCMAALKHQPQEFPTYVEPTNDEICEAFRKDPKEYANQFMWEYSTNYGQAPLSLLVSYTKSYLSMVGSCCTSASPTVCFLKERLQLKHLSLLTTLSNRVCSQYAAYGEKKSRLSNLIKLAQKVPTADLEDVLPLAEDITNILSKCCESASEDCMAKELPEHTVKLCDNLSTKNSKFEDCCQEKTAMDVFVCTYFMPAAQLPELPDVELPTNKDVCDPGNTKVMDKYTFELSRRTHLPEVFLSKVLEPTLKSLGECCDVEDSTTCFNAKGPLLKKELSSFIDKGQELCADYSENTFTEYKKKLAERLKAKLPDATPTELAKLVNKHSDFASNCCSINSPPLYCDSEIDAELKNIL
From the text: The compared analogs are 14α,15α-methano-1α,25(OH)2 D3 (LO), 22(m(dimethylhydroxymethyl)phenyl)-23,24,25,26,27-pentanor-1α- OH-D3 (EV) and (22R)-1,25(OH)2 -22,23,diene-D3 (HR), all conformationally flexible genomic agonists. By definition the RCI for 1α,25(OH)2 D3 is set to 100%. The data seen in FIG. 7 represent the mean of three determinations.
Vitamin D-Binding Protein Assay Relative Competitive Index
This example describes a Relative Competitive Index Assay used for determination of analogs binding affinity to vitamin D-binding protein.
Phase separation was then obtained by the addition of 0.5 ml of cold dextran-coated charcoal.
The data was plotted as [competitor]/[[^3 H]25(OH)D3 ] vs. 1/[fraction bound]. The RCI was calculated as [slope of competitor]/[slopefor 25(OH)D3 ]×100. Results are seen in FIG. 7. Although each analog was assayed in competition with [^3 H]25(OH)D3, the data are expressed as relative to the binding of 1α,25(OH)2 D3, with its RCI set to 100.

rapid responses (VDRmem) = test: Antagonist function (summary classification); conditions: Yes/No, Tables 1 and 6
VDRmem = test: Rapid response (summary classification); conditions: for Rapid Response: Yes/No, Tables 1 and 6

SMILES | Classic Vit D Responses BCM [1] [%] | BCM (in words) [1] | Vit D Binding Protein (RCI) [2] | Antagonist (rapid responses (VDRmem)) | Rapid Response (VDRmem) | Binding to DBP relative to 1α,25(OH)2 D3 (RCI, FIG. 7) [2] [%] | DBP binding (in words) [2] | genomic and/or rapid responses elicited (in words) (VDRmem) | RCI for DBP, times greater than 1α,25(OH)2 D3 ([2]; relative to reference 1α,25(OH)2 D3) [times]
C=C1/C(=C\C=C2/CCC[C@]3(C)[C@@H]([C@H](C)Cc4cccc(O)c4)CC[C@@H]23)C[C@@H](O)C[C@@H]1O [DE] | 1.0 | show stimulating activity in both ICA and BCM assays | 980 | No | Yes | – | – | – | –
C=C1/C(=C\C=C2/CCC[C@]3(C)[C@@H]([C@H](C)Cc4ccc(O)cc4)CC[C@@H]23)C[C@@H](O)C[C@@H]1O [DF] | 0.08 | – | 1980 | No | Yes | – | – | – | –
C=C1/C(=C\C=C2/CCC[C@]3(C)[C@@H]([C@H](C)Cc4cccc(C(C)(C)O)c4)CC[C@@H]23)C[C@@H](O)C[C@@H]1O [EV] | 8 | show stimulating activity in both ICA and BCM assays | 25 | No | Yes | 25 | lower than 1α,25(OH)2 D3 | – | –
CC1=C(/C=C\C2=CCC[C@@]3(C)[C@@H]2CC[C@@H]3[C@H](C)CCCC(C)(C)O)C[C@@H](O)C[C@@H]1O [GF] | < 0.1 | – | 2 | No | Yes | – | lower than 1α,25(OH)2 D3 | – | –
C=C1/C(=C\C=C2/CCC[C@]3(C)[C@@H]([C@H](C)CCCC(C)(C)O)CC[C@@H]23)C[C@@H](O)C[C@H]1O [HL] | < 0.3 | – | – | Yes and blocks or inhibits the action of agonist for rapid responses | No | – | – | – | –
C=C1/C(=C\C=C2/CCC[C@]3(C)[C@@H]([C@H](C)C=C=CC(C)(C)O)CC[C@@H]23)C[C@@H](O)C[C@@H]1O [HQ] | 1.0 | – | 11 | No | Yes | – | lower than 1α,25(OH)2 D3 | – | –
C=C1/C(=C\C=C2/CCC[C@]3(C)[C@@H]([C@H](C)C=C=CC(C)(C)O)CC[C@@H]23)C[C@@H](O)C[C@@H]1O [HR] | 0.6 | – | 48 | No | Yes | 48 | lower than 1α,25(OH)2 D3 | – | –
C[C@H](CCCC(C)(C)O)[C@H]1CC[C@H]2C3=CC=C4C[C@@H](O)C[C@H](O)[C@]4(C)[C@H]3CC[C@]12C [JM] | 0.8 | – | -0.3 | No | Yes | – | lower than 1α,25(OH)2 D3 | elicit solely rapid responses | –
C[C@H](CCCC(C)(C)O)[C@H]1CC[C@H]2C3=CC=C4C[C@@H](O)C[C@H](O)[C@@]4(C)[C@@H]3CC[C@]12C [JN] | 1.0 | – | -0.7 | No | Yes | – | lower than 1α,25(OH)2 D3 | elicit solely rapid responses | –
C[C@H](CCCC(C)(C)O)[C@H]1CC[C@H]2C3=CC=C4C[C@@H](O)C[C@H](O)[C@@]4(C)[C@H]3CC[C@]12C [JO] | 0.03 | – | 2.0 | No | Yes | – | lower than 1α,25(OH)2 D3 | elicit solely rapid responses | –
C[C@H](CCCC(C)(C)O)[C@H]1CC[C@H]2C3=CC=C4C[C@@H](O)C[C@H](O)[C@]4(C)[C@@H]3CC[C@]12C [JP] | 0.8 | – | -5.0 | No | Yes | – | lower than 1α,25(OH)2 D3 | elicit solely rapid responses | –
CC1=C(C=C=C2CCC[C@]3(C)[C@@H]([C@H](C)CCCC(C)(C)O)CC[C@@H]23)C[C@@H](O)C[C@@H]1O [JV] | 0.02 | – | 37 | No | Yes | – | lower than 1α,25(OH)2 D3 | – | –
CC1=C(C=C=C2CCC[C@]3(C)[C@@H]([C@H](C)CCCC(C)(C)O)CC[C@@H]23)C[C@@H](O)C[C@@H]1O [JW] | 0.3 | – | 700 | No | Yes | – | – | – | –
C=C1CC[C@H](O)C/C1=C/C=C1\CCC[C@]2(C)[C@@H]([C@H](C)Cc3ccc(O)cc3)CC[C@@H]12 [JX] | < 0.05 | – | 211,000 | No | Yes | – | binds very tightly to DBP | – | 2110
C=C1CC[C@H](O)C/C1=C/C=C1\CCC[C@]2(C)[C@@H]([C@H](C)Cc3cccc(O)c3)CC[C@@H]12 [JY] | < 0.05 | – | 132,000 | No | Yes | – | – | – | –
